Values joined by “and” are separate entries in the source; they are usually repeats but may differ in a detail not shown here. Equal entries are not always repeated.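 Test compounds were applied to cells in 96-well plates for 48 hours at 5 doses. Here, GI50 denotes the concentration required for 50% inhibition of growth. TGI denotes the concentration required for complete inhibition of growth.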
Assays:
Test in all cases: NCI anticancer screen, dose series, 48 h
786-0 renal = test system: 786-0 renal
A498 renal = test system: A498 renal
A549 NSCLC = test system: A549 NSCLC
ACHN renal = test system: ACHN renal
BT-549 breast = test system: BT-549 breast
CAKI-1 renal = test system: CAKI-1 renal
CCRF-CEM leukemia = test system: CCRF-CEM leukemia
COLO 205 colon = test system: COLO 205 colon
DU-145 prostate = test system: DU-145 prostate
EKVX NSCLC = test system: EKVX NSCLC
HCT-116 colon = test system: HCT-116 colon
HCT-15 colon = test system: HCT-15 colon
HL-60(TB) leukemia = test system: HL-60(TB) leukemia
HOP-62 NSCLC = test system: HOP-62 NSCLC
HOP-92 NSCLC = test system: HOP-92 NSCLC
HS 578T breast = test system: HS 578T breast
HT29 colon = test system: HT29 colon
IGROV1 ovarian = test system: IGROV1 ovarian
K-562 leukemia = test system: K-562 leukemia
KM12 colon = test system: KM12 colon
LOX IMVI melanoma = test system: LOX IMVI melanoma
M14 melanoma = test system: M14 melanoma
MALME-3M melanoma = test system: MALME-3M melanoma
MCF7 breast = test system: MCF7 breast
MDA-MB-231 breast = test system: MDA-MB-231 breast
MDA-MB-435 = test system: MDA-MB-435
MOLT-4 leukemia = test system: MOLT-4 leukemia
NCI-H226 lung = test system: NCI-H226 lung
NCI-H23 lung = test system: NCI-H23 lung
NCI-H460 lung = test system: NCI-H460 lung
NCI/ADR-RES ovarian = test system: NCI/ADR-RES ovarian
OVCAR-3 ovarian = test system: OVCAR-3 ovarian
OVCAR-4 ovarian = test system: OVCAR-4 ovarian
OVCAR-5 ovarian = test system: OVCAR-5 ovarian
OVCAR-8 ovarian = test system: OVCAR-8 ovarian
PC-3 prostate = test system: PC-3 prostate
RPMI-8226 leukemia = test system: RPMI-8226 leukemia
RXF 393 renal = test system: RXF 393 renal
SF-268 CNS = test system: SF-268 CNS
SF-295 CNS = test system: SF-295 CNS
SF-539 CNS = test system: SF-539 CNS
SK-MEL-2 melanoma = test system: SK-MEL-2 melanoma
SK-MEL-28 melanoma = test system: SK-MEL-28 melanoma
SK-MEL-5 melanoma = test system: SK-MEL-5 melanoma
SK-OV-3 ovarian = test system: SK-OV-3 ovarian
SN12C renal = test system: SN12C renal
SNB-19 CNS = test system: SNB-19 CNS
SNB-75 CNS = test system: SNB-75 CNS
SW-620 colon = test system: SW-620 colon
T-47D breast = test system: T-47D breast
TK-10 renal = test system: TK-10 renal
U251 CNS = test system: U251 CNS
UACC-257 melanoma = test system: UACC-257 melanoma
UACC-62 melanoma = test system: UACC-62 melanoma
UO-31 renal = test system: UO-31 renal
HCC-2998 colon = test system: HCC-2998 colon
NCI-H522 lung = test system: NCI-H522 lung
SR leukemia = test system: SR leukemia

## CCN(CCO)CC(C)Nc1ccc([N+](=O)[O-])c2sc3ccccc3c(=O)c12 (centres undefined)
786-0 renal
  GI50: 1.37 µM
  TGI: 3.97 µM
A498 renal
  GI50: 0.252 µM
  TGI: 9.54 µM
A549 NSCLC
  GI50: 0.535 µM
  TGI: 1.97 µM
ACHN renal
  GI50: 1.01 µM
  TGI: 12.1 µM
BT-549 breast
  GI50: 2.1 µM
  TGI: 13.1 µM
CAKI-1 renal
  GI50: 0.304 µM
  TGI: 1.09 µM
CCRF-CEM leukemia
  GI50: 1 µM
  TGI: 7.19 µM
COLO 205 colon
  GI50: 1.62 µM
  TGI: 5.96 µM
DU-145 prostate
  GI50: 1.24 µM
  TGI: 4.9 µM
EKVX NSCLC
  GI50: 1.67 µM
  TGI: 6.28 µM
HCT-116 colon
  GI50: 0.996 µM
  TGI: 2.69 µM
HCT-15 colon
  GI50: 1.76 µM
  TGI: > 100 µM
HL-60(TB) leukemia
  GI50: 0.917 µM
  TGI: 4 µM
HOP-62 NSCLC
  GI50: 1.27 µM
  TGI: 5.55 µM
HOP-92 NSCLC
  GI50: 1.6 µM
  TGI: 7.7 µM
HS 578T breast
  GI50: 1.75 µM
  TGI: 10.5 µM
HT29 colon
  GI50: 1.42 µM
  TGI: 3.62 µM
IGROV1 ovarian
  GI50: 0.34 µM
  TGI: 1.6 µM
K-562 leukemia
  GI50: 1.44 µM
  TGI: 6.71 µM
KM12 colon
  GI50: 1.47 µM
  TGI: 4 µM
LOX IMVI melanoma
  GI50: 0.746 µM
  TGI: 2.69 µM
M14 melanoma
  GI50: 1.54 µM
  TGI: 3.45 µM
MALME-3M melanoma
  GI50: 0.421 µM
  TGI: 2.13 µM
MCF7 breast
  GI50: 0.436 µM
  TGI: 4.15 µM
MDA-MB-231 breast
  GI50: 2.6 µM
  TGI: 12.3 µM
MDA-MB-435
  GI50: 1.54 µM
  TGI: 3.8 µM
MOLT-4 leukemia
  GI50: 0.361 µM
  TGI: 2.89 µM
NCI-H226 lung
  GI50: 1.37 µM
  TGI: 7.15 µM
NCI-H23 lung
  GI50: 1.78 µM
  TGI: 6.4 µM
NCI-H460 lung
  GI50: 0.379 µM
  TGI: 2.27 µM
NCI/ADR-RES ovarian
  GI50: 1.6 µM
  TGI: 5.86 µM
OVCAR-3 ovarian
  GI50: 2.96 µM
  TGI: 12.3 µM
OVCAR-4 ovarian
  GI50: 3.32 µM
  TGI: 15.7 µM
OVCAR-5 ovarian
  GI50: 3.68 µM
  TGI: 18.5 µM
OVCAR-8 ovarian
  GI50: 1.18 µM
  TGI: 4.19 µM
PC-3 prostate
  GI50: 1.33 µM
  TGI: 4.55 µM
RPMI-8226 leukemia
  GI50: 1.26 µM
  TGI: 4 µM
RXF 393 renal
  GI50: 1.89 µM
  TGI: 8 µM
SF-268 CNS
  GI50: 1.98 µM
  TGI: 11.5 µM
SF-295 CNS
  GI50: 0.488 µM
  TGI: 2.12 µM
SF-539 CNS
  GI50: 3.6 µM
  TGI: 19.2 µM
SK-MEL-2 melanoma
  GI50: 1.23 µM
  TGI: 3.64 µM
SK-MEL-28 melanoma
  GI50: 2.68 µM
  TGI: 10.3 µM
SK-MEL-5 melanoma
  GI50: 1.52 µM
  TGI: 5.56 µM
SK-OV-3 ovarian
  GI50: 2.53 µM
  TGI: 14 µM
SN12C renal
  GI50: 2.15 µM
  TGI: 18.4 µM
SNB-19 CNS
  GI50: 2.34 µM
  TGI: 19 µM
SNB-75 CNS
  GI50: 1.84 µM
  TGI: 12.6 µM
SW-620 colon
  GI50: 1.04 µM
  TGI: 3.19 µM
T-47D breast
  GI50: 2.68 µM
  TGI: 26.8 µM
TK-10 renal
  GI50: 1.44 µM
  TGI: 11.7 µM
U251 CNS
  GI50: 0.716 µM
  TGI: 3.35 µM
UACC-257 melanoma
  GI50: 1.47 µM
  TGI: 2.85 µM
UACC-62 melanoma
  GI50: 1.63 µM
  TGI: 12.8 µM
UO-31 renal
  GI50: 0.278 µM
  TGI: 1.65 µM

## Cc1n[nH]c(=O)n1/N=C/c1ccc([N+](=O)[O-])o1
786-0 renal
  TGI: 36.3 µM
A498 renal
  TGI: 47.6 µM
A549 NSCLC
  TGI: 35.7 µM
ACHN renal
  TGI: 28.7 µM
BT-549 breast
  TGI: 36.6 µM
CAKI-1 renal
  TGI: 19.9 µM
CCRF-CEM leukemia
  TGI: > 100 µM
COLO 205 colon
  TGI: 20.8 µM
DU-145 prostate
  TGI: 22.3 µM
EKVX NSCLC
  TGI: 34.3 µM
HCC-2998 colon
  TGI: 40.7 µM
HCT-116 colon
  TGI: 30.2 µM
HCT-15 colon
  TGI: 26.2 µM
HOP-62 NSCLC
  TGI: > 64.4 µM
HT29 colon
  TGI: 30.1 µM
K-562 leukemia
  TGI: > 100 µM
KM12 colon
  TGI: 29.3 µM
LOX IMVI melanoma
  TGI: 27.1 µM
M14 melanoma
  TGI: 26.6 µM
MALME-3M melanoma
  TGI: 15.5 µM
MCF7 breast
  TGI: > 100 µM
MDA-MB-231 breast
  TGI: 74.9 µM
MDA-MB-435
  TGI: 18.6 µM
MOLT-4 leukemia
  TGI: > 100 µM
NCI-H226 lung
  TGI: 56 µM
NCI-H23 lung
  TGI: 32.4 µM
NCI-H460 lung
  TGI: 49.4 µM
NCI/ADR-RES ovarian
  TGI: 70.3 µM
OVCAR-3 ovarian
  TGI: 17.8 µM
OVCAR-4 ovarian
  TGI: 32.3 µM
OVCAR-5 ovarian
  TGI: 53.1 µM
OVCAR-8 ovarian
  TGI: 34.6 µM
PC-3 prostate
  TGI: > 100 µM
RPMI-8226 leukemia
  TGI: > 58.3 µM
RXF 393 renal
  TGI: 17.7 µM
SF-268 CNS
  TGI: 45.6 µM
SF-295 CNS
  TGI: > 100 µM
SF-539 CNS
  TGI: 37.1 µM
SK-MEL-2 melanoma
  TGI: > 53.8 µM
SK-MEL-28 melanoma
  TGI: 28.3 µM
SK-MEL-5 melanoma
  TGI: 12.1 µM
SK-OV-3 ovarian
  TGI: > 100 µM
SN12C renal
  TGI: 14.4 µM
SNB-19 CNS
  TGI: > 100 µM
SNB-75 CNS
  TGI: > 100 µM
SW-620 colon
  TGI: 37.8 µM
T-47D breast
  TGI: 40.6 µM
TK-10 renal
  TGI: 36.8 µM
U251 CNS
  TGI: > 53.7 µM
UACC-257 melanoma
  TGI: 27.7 µM
UACC-62 melanoma
  TGI: 33.6 µM
UO-31 renal
  TGI: 30.2 µM

## COc1cc(C2C3=C(COC3=O)Oc3cc4c(cc32)OCO4)cc(OC)c1OC(C)=O (centres undefined)
786-0 renal
  TGI: > 100 µM
A498 renal
  TGI: 0.618 µM
A549 NSCLC
  TGI: > 100 µM
ACHN renal
  TGI: > 57.2 µM
BT-549 breast
  TGI: 5.74 µM
CAKI-1 renal
  TGI: > 100 µM
CCRF-CEM leukemia
  TGI: > 100 µM
COLO 205 colon
  TGI: 0.336 µM
DU-145 prostate
  TGI: > 100 µM
EKVX NSCLC
  TGI: > 100 µM
HCC-2998 colon
  TGI: > 100 µM
HCT-15 colon
  TGI: > 100 µM
HL-60(TB) leukemia
  TGI: 0.615 µM
HOP-62 NSCLC
  TGI: > 100 µM
IGROV1 ovarian
  TGI: 10.9 µM
K-562 leukemia
  TGI: > 100 µM
KM12 colon
  TGI: > 100 µM
LOX IMVI melanoma
  TGI: > 24.1 µM
M14 melanoma
  TGI: > 100 µM
MALME-3M melanoma
  TGI: > 100 µM
MCF7 breast
  TGI: > 51.6 µM
MOLT-4 leukemia
  TGI: > 100 µM
NCI-H460 lung
  TGI: > 100 µM
NCI-H522 lung
  TGI: > 100 µM
OVCAR-3 ovarian
  TGI: > 100 µM
OVCAR-4 ovarian
  TGI: > 100 µM
OVCAR-8 ovarian
  TGI: > 100 µM
RPMI-8226 leukemia
  TGI: > 100 µM
SF-268 CNS
  TGI: > 100 µM
SK-MEL-2 melanoma
  TGI: > 100 µM
SK-MEL-5 melanoma
  TGI: 0.0785 µM
SN12C renal
  TGI: > 100 µM
SNB-19 CNS
  TGI: > 100 µM
SR leukemia
  TGI: > 100 µM
TK-10 renal
  TGI: > 100 µM
U251 CNS
  TGI: > 100 µM
UACC-257 melanoma
  TGI: > 100 µM
UO-31 renal
  TGI: > 39.4 µM

## CC(=O)c1c(-c2cccc3ccccc23)c(C#N)c(=S)n(C2OC(CO)C(O)C(O)C2O)c1-c1ccccc1 (centres undefined)
EKVX NSCLC
  TGI: > 100 µM
HOP-92 NSCLC
  TGI: > 100 µM
UO-31 renal
  GI50: 5.09 µM and 1.59 µM
  TGI: 23.8 µM and 3.54 µM

— PubChem BioAssay (NCI)
